pIC50: −log10 of the molar value. Like-named read-outs stand apart in the source and are kept apart here.
Experiments:
Assay type in all cases: biochemical
PDPK1 = biological target: T1, PDPK1 (Homo sapiens, UniProt O15530); test: PDK1-OMNIA kinase assay (ST28-Sox peptide); parameters: purchased Invitrogen, BPS or SignalChem P3001 (Invitrogen), 40080 (BPS), P14-10H (SignalChem); settings: PDPK1 enzyme pre-incubated 30 min at 25° C. with compound; [ATP]=5 μM; ST28-Sox peptide substrate; read-out: Inhibition/Modification Designation (IC50, PDK1-OMNIA)
T1 sequence (O15530 1-556): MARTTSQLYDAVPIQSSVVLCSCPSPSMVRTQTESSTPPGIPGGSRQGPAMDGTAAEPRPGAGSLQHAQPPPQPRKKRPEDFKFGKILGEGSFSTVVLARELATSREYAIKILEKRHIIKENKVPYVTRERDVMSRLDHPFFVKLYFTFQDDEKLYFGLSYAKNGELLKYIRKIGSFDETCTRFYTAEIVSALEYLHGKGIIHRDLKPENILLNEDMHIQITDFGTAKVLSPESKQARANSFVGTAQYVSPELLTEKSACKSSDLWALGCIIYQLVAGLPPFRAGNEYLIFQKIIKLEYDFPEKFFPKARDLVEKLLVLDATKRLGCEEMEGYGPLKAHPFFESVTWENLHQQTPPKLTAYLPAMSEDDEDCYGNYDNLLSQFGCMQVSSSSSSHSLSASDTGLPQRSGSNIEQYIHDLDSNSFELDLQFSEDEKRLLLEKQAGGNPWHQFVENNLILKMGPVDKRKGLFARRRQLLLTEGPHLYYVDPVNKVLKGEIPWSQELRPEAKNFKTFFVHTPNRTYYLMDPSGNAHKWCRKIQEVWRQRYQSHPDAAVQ
Description: Briefly, a 10× stock of PDPK1 enzyme from Invitrogen (P3001) or BPS (40080) or SignalChem (P14-10H), 1.13×ATP (AS001A) and ST28-Sox peptide substrate (KNZ1281C) were prepared in 1× kinase reaction buffer consisting of 20 mM Tris, pH 7.5, 5 mM MgCl2, 1 mM EGTA, 5 mM β-glycerophosphate, 5% glycerol (10× stock, KB002A) and 0.2 mM DTT (DS001A). 5 μL of enzyme were pre-incubated in a Corning (#3574) 384-well, white, non-binding surface microtiter plate (Corning, N.Y.) for 30 min at 25° C. with a 0.5 μL volume of 50% DMSO and serially diluted compounds prepared in 50% DMSO. Kinase reactions were started with the addition of 45 […] of the ST28-Sox peptide substrate and monitored every 71 seconds for 30-60 minutes at λex360/λem485 in a Synergy4 plate reader from BioTek (Winooski, Vt.). At the conclusion of each assay, progress curves from each well were examined for linear reaction kinetics and fit statistics (R^2, 95% confidence interval, absolute sum of squares). Post-lag velocity (+10 minutes to 20+ minutes) from each reaction was estimated from the slope of a plot of relative fluorescence units vs time (minutes) and normalized to the no enzyme and no inhibitor control groups for % Inhibition. The resulting inhibition values were then plotted against inhibitor concentration to estimate IC50 from log [Inhibitor] vs Response, Variable Slope model in GraphPad Prism from GraphPad Software (San Diego, Calif.).
[Reagent] used in provisional protocol(s): Invitrogen—[PDPK1]=5-10 nM, [ATP]=5 μM and [ST28-Sox]=5 μM or 10 μM (ATP KMapp=4-6 μM); BPS—[PDPK1]=10-15 nM, [ATP]=5 μM and [ST28-Sox]=10 μM (ATP KMapp=3-5 μM); SignalChem—[PDPK1]=5-10 nM, [ATP]=5 μM and [ST28-Sox]=5 μM or 10 μM (ATP KMapp ND)

[1] = biological target: T2, HCV NS3/4A 1b protease enzyme (wild type) (Hepatitis C virus genotype 1b, UniProt P26663); test: HCV protease FRET assay (IC50_APP), wild type NS3/4A 1b
T2 construct: 10× stocks of NS3/4A protease enzyme from Bioenza (Mountain View, Calif.); purchased Bioenza
Description: HCV Protease FRET Assay for WT and Mutated NS3/4A 1b Enzymes (IC50_APP).
The following protocol was used to generate “apparent” IC50 (IC50_APP) values as depicted in Table 6, below. Without wishing to be bound by any particular theory, it is believed that IC50_APP, contrasted with IC50 values, may provide a more useful indication of time-dependent inhibition, and are thus more representative of binding affinity. […] 5 μL of each enzyme were added to Corning (#3575) 384-well, black, microtiter plates (Corning, N.Y.) after spotting a 0.5 μL volume of 50% DMSO and serially diluted compounds prepared in 50% DMSO. Protease reactions were immediately started after enzyme addition with the addition of 45 μL of the FRET substrate and monitored for 60-90 minutes at λex485/λem520 in a Synergy plate reader from BioTek (Winooski, Vt.). At the conclusion of each assay, progress curves from each well were examined for linear reaction kinetics and fit statistics (R^2, 95% confidence intervals, absolute sum of squares). Initial velocity (0 minutes to 15+ minutes) from each reaction was determined from the slope of a plot of relative fluorescence units vs time (minutes) and then plotted against inhibitor concentration as a percent of the no inhibitor and no enzyme controls to estimate apparent IC50 from log [Inhibitor] vs Response. (Variable Slope model in GraphPad Prism from GraphPad Software (San Diego, Calif.).)

p120γ (PI3Kγ) = biological target: T3, p120γ (PI3Kγ) (Homo sapiens, UniProt P48736); test: HTRF assay, p120γ
T3 construct: purchased BPS Bioscience 40625
Excerpt: The protocol below describes an end-point, competition-binding HTRF assay used to measure inherent potency of test compounds against active p110α/p85α, p110β/p85α, p120γ enzymes. The mechanics of the assay platform are best described by the vendor (Millipore, Billerica, Mass.) on their website at the following URL: http://www.millipore.com/coa/tech1/74jt4z.
Briefly, Stop solution (Stop A, #33-007 and Stop B, #33-009; 3:1 ratio) and Detection Mix (DMC, #33-015 with DMA, #33-011 and DMB, #33-013; 18:1:1 ratio) were prepared as recommended by the manufacturer ˜2 hrs prior to use. Additionally, 1× reaction buffer (4× buffer stock #33-003), a 1.4× stock of enzyme from BPS Bioscience (San Diego, Ca) or Millipore (Billerica, Mass.) with di-C8-PIP2 lipid substrate (#33-005), and a 4×ATP solution (#A7699) Sigma/Aldrich (St. Louis, Mo.) were prepared in 1×reaction buffer. 15 μL of enzyme and lipid substrate mix were pre-incubated in a Corning (#3573) 384-well, black, non-treated microtiter plate (Corning, N.Y.) for 30 min at 25° C. with a 0.5 μL volume of 50% DMSO and serially diluted compounds prepared in 50%-75% DMSO. Lipid kinase reactions were started with the addition of 5 μL of ATP solution, mixed for 15 sec on a rotary plate shaker and incubated for 15-30 minutes at 25° C. Next, reactions were stopped with a 5 μL addition of Stop solution followed by a 5 μL volume of Detection Mix. Stopped reactions were equilibrated for 1 and 18 hrs at room temperature and then read in a Synergy4 plate reader from BioTek (Winooski, Vt.) at λex330-80/λem620-35 and λem665-7.5. At the conclusion of each assay, the HTRF ratio from fluorescence emission values for each well was calculated and % Inhibition determined from averaged controls wells. % Inhibition values for each compound re then plotted against inhibitor concentration to estimate IC50 from log [Inhibitor] vs Response, Variable Slope model in GraphPad Prism from GraphPad Software (San Diego, Calif.).
Reagents Used in Optimized Protocol: • [p120γ]=1-4 nM, [ATP]=50 μM, [di-C8-PIP2]=10 μM • (40625; BPS Bioscience)

T3 sequence (P48736 whole entry): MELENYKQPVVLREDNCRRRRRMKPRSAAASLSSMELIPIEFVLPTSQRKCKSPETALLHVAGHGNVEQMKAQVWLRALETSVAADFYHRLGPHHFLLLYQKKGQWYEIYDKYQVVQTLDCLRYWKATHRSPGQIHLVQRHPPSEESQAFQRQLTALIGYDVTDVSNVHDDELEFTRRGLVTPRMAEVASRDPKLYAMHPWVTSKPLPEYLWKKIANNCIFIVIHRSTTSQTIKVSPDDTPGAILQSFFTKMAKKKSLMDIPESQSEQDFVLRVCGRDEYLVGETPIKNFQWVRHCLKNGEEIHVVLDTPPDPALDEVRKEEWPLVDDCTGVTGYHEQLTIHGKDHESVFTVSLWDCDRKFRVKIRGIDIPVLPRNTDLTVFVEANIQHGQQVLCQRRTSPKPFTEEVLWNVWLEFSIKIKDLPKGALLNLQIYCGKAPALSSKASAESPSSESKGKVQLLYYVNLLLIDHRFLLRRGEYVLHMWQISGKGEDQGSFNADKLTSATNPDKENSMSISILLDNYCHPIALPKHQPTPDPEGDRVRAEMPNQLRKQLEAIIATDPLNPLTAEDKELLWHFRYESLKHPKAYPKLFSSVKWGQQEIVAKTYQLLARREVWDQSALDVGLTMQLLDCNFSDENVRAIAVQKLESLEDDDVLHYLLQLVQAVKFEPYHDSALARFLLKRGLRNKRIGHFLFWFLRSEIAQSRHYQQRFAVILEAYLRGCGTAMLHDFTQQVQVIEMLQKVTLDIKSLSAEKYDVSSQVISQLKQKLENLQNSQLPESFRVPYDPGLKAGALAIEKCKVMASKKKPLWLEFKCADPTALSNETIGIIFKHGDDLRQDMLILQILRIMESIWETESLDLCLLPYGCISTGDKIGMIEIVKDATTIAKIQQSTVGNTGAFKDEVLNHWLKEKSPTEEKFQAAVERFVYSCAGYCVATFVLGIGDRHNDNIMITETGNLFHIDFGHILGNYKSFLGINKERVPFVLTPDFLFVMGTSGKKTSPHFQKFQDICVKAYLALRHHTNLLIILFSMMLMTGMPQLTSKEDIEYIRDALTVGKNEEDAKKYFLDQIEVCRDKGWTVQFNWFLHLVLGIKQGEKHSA
T2 sequence (P26663 1658-1711): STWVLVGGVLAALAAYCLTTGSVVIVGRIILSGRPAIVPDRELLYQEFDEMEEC
T2 sequence (P26663 1027-1657): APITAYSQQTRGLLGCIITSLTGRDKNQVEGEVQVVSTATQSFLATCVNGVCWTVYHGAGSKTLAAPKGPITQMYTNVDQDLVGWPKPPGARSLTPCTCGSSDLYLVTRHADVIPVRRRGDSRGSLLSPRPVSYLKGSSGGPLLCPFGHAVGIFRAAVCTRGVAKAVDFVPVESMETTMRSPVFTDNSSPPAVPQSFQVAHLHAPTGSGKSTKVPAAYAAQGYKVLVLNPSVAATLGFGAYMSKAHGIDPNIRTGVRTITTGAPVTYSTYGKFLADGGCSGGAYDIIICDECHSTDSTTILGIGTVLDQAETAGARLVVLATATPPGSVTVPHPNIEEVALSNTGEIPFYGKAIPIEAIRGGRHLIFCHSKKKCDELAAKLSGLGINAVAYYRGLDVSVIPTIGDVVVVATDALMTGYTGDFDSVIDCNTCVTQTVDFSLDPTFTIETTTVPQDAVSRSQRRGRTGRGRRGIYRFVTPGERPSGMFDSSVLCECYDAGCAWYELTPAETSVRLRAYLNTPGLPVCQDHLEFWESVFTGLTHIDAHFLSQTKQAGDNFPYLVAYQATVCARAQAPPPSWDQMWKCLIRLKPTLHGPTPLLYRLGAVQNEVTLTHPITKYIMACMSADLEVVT

SMILES	pIC50 (PDPK1)	also measured
C=C[C@@H]1C[C@]1(NC(=O)[C@@H]1CC(OC(=O)N2Cc3cccc(F)c3C2)CN1C(=O)CNC(=O)[C@@H]1CCC(=O)O1)C(=O)NS(=O)(=O)C1CC1 (stereo partly drawn) [XVI-13, (5S)-5-((1R,2S)-1-(cyclopropylsulfonylcarbamoyl)-2-vinylcyclopropylcarbamoyl)-1-(2-((S)-5-oxotetrahydrofuran-2-carboxamido)acetyl)pyrrolidin-3-yl 4-fluoroisoindoline-2-carboxylate]		pIC50 [1]: 6.00 to 7.00
Cc1ccc([N+](=O)[O-])cc1S(=O)(=O)N(C)/N=C/c1cnc2ccc(Br)cn12 [PIK75, reference compound]		pIC50 (p120γ (PI3Kγ); p120γ, read-out: Reference Inhibitor IC50): 7.26
CC(C)(C(N)=O)C(=O)NCCCNc1nc(Nc2ccc(NC(=O)[C@@H]3CCC(=O)O3)cc2)ncc1Br [XI-43]	6.00 to 7.00	
CC(C)(C(N)=O)C(=O)NCCCNc1nc(Nc2cccc(NC(=O)C3CCSC3=O)c2)ncc1Br (stereo not drawn) [XI-23]	7.00 to 8.00	
CC(C)(C(N)=O)C(=O)NCCCNc1nc(Nc2cccc(NC(=O)C3CC(=O)CC(=O)C3)c2)ncc1Br [XI-29]	7.00 to 8.00	
CC(C)(C(N)=O)C(=O)NCCCNc1nc(Nc2cccc(NC(=O)c3ccc4c(c3)CCC(=O)O4)c2)ncc1Br [XI-36]	7.00 to 8.00	
CC(C)(C(N)=O)C(=O)NCCCNc1nc(Nc2cccc(NC(=O)CCC(=O)NC3CCSC3=O)c2)ncc1Br (stereo not drawn) [XI-34]	7.00 to 8.00	
CC(C)(C(N)=O)C(=O)NCCCNc1nc(Nc2cccc(NC(=O)[C@@H]3CCC(=O)O3)c2)ncc1Br [XI-52]	7.00 to 8.00	
CC(C)(C(N)=O)C(=O)NCCCNc1nc(Nc2cccc(CCC(=O)N3C[C@H]4C[C@@H]3C(=O)O4)c2)ncc1Br [XI-45]	7.00 to 8.00	
CC(C)(C(N)=O)C(=O)NCCCNc1nc(Nc2cccc(N3C(=O)CCC3=O)c2)ncc1Br [XI-46]	7.00 to 8.00	
CC(C)(C(N)=O)C(=O)NCCCNc1nc(Nc2ccc(CCC(=O)N3C[C@H]4C[C@@H]3C(=O)O4)cc2)ncc1Br [XI-40]	> 8.00	
C=CC(=O)N(C)Cc1cc2nc(-c3cccc(O)c3)nc(N3CCOCC3)c2s1 [XXII-5, N-((2-(3-hydroxyphenyl)-4-morpholinothieno[3,2-d]pyrimidin-6-yl)methyl)-N-methylacrylamide]		pIC50 (p120γ (PI3Kγ); PI3Kγ, read-out: PI3Kγ HTRF IC50 Inhibition Designation): 6.00 to 7.00
COC1=CC(=O)CC(C(=O)Nc2cccc(Nc3ncc(Br)c(NCCCNC(=O)C(C)(C)C(N)=O)n3)c2)C1 (stereo not drawn) [XI-30]	7.00 to 8.00	
CC1(C)OC2C(=O)CC(C(=O)NCC(=O)Nc3cccc(Nc4ncc(Br)c(NCCCNC(=O)C(C)(C)C(N)=O)n4)c3)C2O1 (stereo not drawn) [XI-32]	6.00 to 7.00	

Now from value to molecule, other results behind:

pIC50 (PDPK1)	SMILES	also measured
7.00 to 8.00	CC(C)(C(N)=O)C(=O)NCCCNc1nc(Nc2cccc(NC(=O)CNC(=O)[C@@H]3CCC(=O)O3)c2)ncc1Br [XI-37]	
7.00 to 8.00	CC(C)(C(N)=O)C(=O)NCCCNc1nc(Nc2cccc(NC(=O)CC(N)C(=O)N3C[C@H]4C[C@@H]3C(=O)O4)c2)ncc1Br (stereo partly drawn) [XI-33]	
7.00 to 8.00	CC(C)(C(N)=O)C(=O)NCCCNc1nc(Nc2cccc(CCC(=O)N3C[C@@H]4C[C@H]3C(=O)O4)c2)ncc1Br [XI-44]	
> 8.00	CC(C)(C(N)=O)C(=O)NCCCNc1nc(Nc2cccc(NC(=O)CCC(=O)N3CCC3=O)c2)ncc1Br [XI-55]	
7.00 to 8.00	CC(C)(C(N)=O)C(=O)NCCCNc1nc(Nc2cccc(NC(=O)[C@H]3CCC(=O)O3)c2)ncc1Br [XI-50]	
6.00 to 7.00	CC(C)(C(N)=O)C(=O)NCCCNc1nc(Nc2cccc(NC(=O)CC(NC(=O)CCCC(=O)NCCCOCCOCCOCCCNC(=O)CCCC[C@@H]3SC[C@@H]4NC(=O)N[C@@H]43)C(=O)N3C[C@H]4C[C@@H]3C(=O)O4)c2)ncc1Br (stereo partly drawn) [XI-56]	
> 8.00	CC(C)(C(N)=O)C(=O)NCCCNc1nc(Nc2ccc(CCC(=O)N3C[C@@H]4C[C@H]3C(=O)O4)cc2)ncc1Br [XI-41]	
> 8.00	CON1C[C@H](NC(=O)CCC(=O)Nc2cccc(Nc3ncc(Br)c(NCCCNC(=O)C(C)(C)C(N)=O)n3)c2)C1=O [XI-47]	
7.00 to 8.00	CC(C)(C(N)=O)C(=O)NCCCNc1nc(Nc2ccc(NC(=O)[C@H]3CCC(=O)O3)cc2)ncc1Br [XI-42]	
7.00 to 8.00	CC(C)(C(N)=O)C(=O)NCCCNc1nc(Nc2cccc(NC(=O)CNC(=O)C3CCSC3=O)c2)ncc1Br (stereo not drawn) [XI-24]	
> 8.00	CC(C)(C(N)=O)C(=O)NCCCNc1nc(Nc2cccc(NC(=O)CCC(=O)N3C[C@@H]4CC3C(=O)O4)c2)ncc1Br [XI-48]	
7.00 to 8.00	C=CC(=O)NCC(=O)Nc1cccc(Nc2ncc(Br)c(NCCCNC(=O)C(C)(C)C(N)=O)n2)c1 [XI-31]	
> 8.00	CC(C)(C(N)=O)C(=O)NCCCNc1nc(Nc2cccc(NC(=O)CCC(=O)Oc3ccccc3)c2)ncc1Br [XI-25]	

Reference: US11542492B2 (Celgene CAR LLC, priority 2009, dated 2023)
